Test results as given in the NIST ThermoML archive (doi:10.1016/j.jct.2016.07.032).

How the values were obtained:
[1] = refractive index (Na D-line) (dimensionless); xn = mol fraction of the nth substance listed; conditions: 101.3 kPa, Liquid, Standard Abbe refractometry
[2] = xn = mol fraction of the nth substance listed; conditions: 101.3 kPa, Liquid; for speed of sound: Frequency=3 MHz, Sing-around technique in a fixed-path interferometer; for mass density: Vibrating tube method

CCOc1ccccc1 [ethoxybenzene] + CN(C)C=O
Conditions	mass density, 298 K [kg/m3]	mass density, 303 K [kg/m3]	mass density, 308 K [kg/m3]	refractive index, 298 K	refractive index, 303 K	refractive index, 308 K	speed of sound, 298 K [m/s]	speed of sound, 303 K [m/s]	speed of sound, 308 K [m/s]
[1], x1 = 0.031	–	–	–	1.431	1.43	1.427	–	–	–
[1], x1 = 0.091	–	–	–	1.437	1.435	1.432	–	–	–
[1], x1 = 0.153	–	–	–	1.442	1.44	1.437	–	–	–
[1], x1 = 0.223	–	–	–	1.448	1.446	1.442	–	–	–
[1], x1 = 0.304	–	–	–	1.455	1.452	1.449	–	–	–
[1], x1 = 0.463	–	–	–	1.468	1.465	1.461	–	–	–
[1], x1 = 0.556	–	–	–	1.475	1.471	1.468	–	–	–
[1], x1 = 0.642	–	–	–	1.481	1.478	1.474	–	–	–
[1], x1 = 0.8	–	–	–	1.493	1.489	1.485	–	–	–
[1], x1 = 1	–	–	–	1.505	1.503	1.499	–	–	–
[2], x1 = 0.031	946	941	936	–	–	–	1452	1432	1415
[2], x1 = 0.091	948	943	939	–	–	–	1443	1424	1406
[2], x1 = 0.153	950	945	941	–	–	–	1435	1415	1398
[2], x1 = 0.223	952	947	943	–	–	–	1427	1407	1389
[2], x1 = 0.304	954	949	945	–	–	–	1418	1398	1380
[2], x1 = 0.463	956	952	948	–	–	–	1403	1383	1365
[2], x1 = 0.556	957	953	949	–	–	–	1396	1376	1357
[2], x1 = 0.642	958	954	949	–	–	–	1390	1370	1350
[2], x1 = 0.8	959	955	950	–	–	–	1379	1360	1340
[2], x1 = 1	960	955	951	–	–	–	1369	1349	1329

CCOc1ccccc1 [ethoxybenzene] + C1CCOC1
Conditions	mass density, 298 K [kg/m3]	mass density, 303 K [kg/m3]	mass density, 308 K [kg/m3]	refractive index, 298 K	refractive index, 303 K	refractive index, 308 K	speed of sound, 298 K [m/s]	speed of sound, 303 K [m/s]	speed of sound, 308 K [m/s]
[1], x1 = 0.031	–	–	–	1.41	1.408	1.405	–	–	–
[1], x1 = 0.072	–	–	–	1.417	1.414	1.412	–	–	–
[1], x1 = 0.117	–	–	–	1.424	1.422	1.419	–	–	–
[1], x1 = 0.197	–	–	–	1.436	1.433	1.43	–	–	–
[1], x1 = 0.246	–	–	–	1.443	1.44	1.437	–	–	–
[1], x1 = 0.326	–	–	–	1.453	1.45	1.447	–	–	–
[1], x1 = 0.492	–	–	–	1.472	1.469	1.466	–	–	–
[1], x1 = 0.695	–	–	–	1.49	1.487	1.483	–	–	–
[1], x1 = 0.899	–	–	–	1.502	1.499	1.494	–	–	–
[1], x1 = 1	–	–	–	1.505	1.503	1.499	–	–	–
[2], x1 = 0.031	886	883	878	–	–	–	1279	1255	1230
[2], x1 = 0.072	892	888	883	–	–	–	1281	1256	1231
[2], x1 = 0.117	897	893	888	–	–	–	1283	1258	1233
[2], x1 = 0.197	905	901	897	–	–	–	1287	1262	1237
[2], x1 = 0.246	910	906	902	–	–	–	1289	1265	1241
[2], x1 = 0.326	918	913	909	–	–	–	1295	1271	1247
[2], x1 = 0.492	931	927	922	–	–	–	1310	1287	1264
[2], x1 = 0.695	944	940	935	–	–	–	1332	1309	1287
[2], x1 = 0.899	955	951	946	–	–	–	1356	1334	1314
[2], x1 = 1	960	955	951	–	–	–	1369	1349	1329

CCOc1ccccc1 [ethoxybenzene] + CN1CCCC1=O
Conditions	mass density, 298 K [kg/m3]	mass density, 303 K [kg/m3]	mass density, 308 K [kg/m3]	refractive index, 298 K	refractive index, 303 K	refractive index, 308 K	speed of sound, 298 K [m/s]	speed of sound, 303 K [m/s]	speed of sound, 308 K [m/s]
[1], x1 = 0.041	–	–	–	1.469	1.468	1.466	–	–	–
[1], x1 = 0.122	–	–	–	1.474	1.472	1.469	–	–	–
[1], x1 = 0.201	–	–	–	1.478	1.475	1.473	–	–	–
[1], x1 = 0.273	–	–	–	1.481	1.479	1.476	–	–	–
[1], x1 = 0.37	–	–	–	1.485	1.483	1.48	–	–	–
[1], x1 = 0.504	–	–	–	1.491	1.488	1.485	–	–	–
[1], x1 = 0.628	–	–	–	1.495	1.492	1.489	–	–	–
[1], x1 = 0.709	–	–	–	1.498	1.495	1.491	–	–	–
[1], x1 = 0.822	–	–	–	1.501	1.498	1.495	–	–	–
[1], x1 = 1	–	–	–	1.505	1.503	1.499	–	–	–
[2], x1 = 0.041	1023	1019	1015	–	–	–	1534	1515	1497
[2], x1 = 0.122	1018	1014	1010	–	–	–	1513	1495	1477
[2], x1 = 0.201	1013	1009	1005	–	–	–	1495	1477	1460
[2], x1 = 0.273	1008	1004	1000	–	–	–	1480	1462	1445
[2], x1 = 0.37	1001	997	993	–	–	–	1460	1443	1427
[2], x1 = 0.504	992	988	983	–	–	–	1437	1420	1403
[2], x1 = 0.628	983	979	975	–	–	–	1418	1400	1383
[2], x1 = 0.709	978	974	969	–	–	–	1406	1388	1370
[2], x1 = 0.822	971	966	962	–	–	–	1391	1372	1354
[2], x1 = 1	960	955	951	–	–	–	1369	1349	1329
